In data set [1] the test system is Mycobacterium tuberculosis. As to the kind of experiment: Antimycobacterial activity against wild type Mycobacterium tuberculosis H37Rv assessed as bacterial growth inhibition measured after 21 days by microbroth dilution method. Conditions: for MIC: 504 h, time 21 day. The class given is functional.
Data set [2] is described as follows: (§1) Cytotoxicity against human MRC5 cells assessed as reduction in cell number measured after 72 hrs by Hoechst 33342 staining based microscopic analysis. The class given is toxicity. The following applies: MRC5 cells, read-out: LD50.
In data set [3] the test system is Mycolicibacterium smegmatis. As to the kind of experiment: Antimycobacterial activity against Mycobacterium smegmatis MC2 155 assessed as inhibition of bacterial growth at 2 uM incubated for 16 hrs relative to control. The class given is functional.
Data set [4] deals with Mycolicibacterium smegmatis. As to the kind of experiment: Antimycobacterial activity against Mycobacterium smegmatis MC2 155 assessed as inhibition of bacterial growth at 5 uM incubated for 16 hrs relative to control. The class given is functional.
Data set [5] deals with Mycolicibacterium smegmatis. As to the kind of experiment: Antimycobacterial activity against Mycobacterium smegmatis MC2 155 assessed as inhibition of bacterial growth at 10 uM incubated for 16 hrs relative to control. The class given is functional.
The test system of data set [6] is Mycolicibacterium smegmatis. As to the kind of experiment: Disruption of trans-membrane electrical charge gradient of proton motive force in Mycobacterium smegmatis at 30 uM by DiSC3(5)-probe based fluorescence assay. The class given is functional, organism-based.
Data set [7] deals with Mycolicibacterium smegmatis. As to the kind of experiment: Antimycobacterial activity against Mycobacterium smegmatis MC2 155 assessed as inhibition of bacterial growth at 6.2 uM incubated for 16 hrs relative to control. The class given is functional.
Data set [8] relates to Mycolicibacterium smegmatis. As to the kind of experiment: Antimycobacterial activity against Mycobacterium smegmatis MC2 155 assessed as reduction in trehalose monomycolates level at 6.2 uM incubated for 16 hrs by TLC analysis. The class given is functional, organism-based.
The subject of data set [9] is Mycolicibacterium smegmatis. As to the kind of experiment: Antimycobacterial activity against Mycobacterium smegmatis MC2 155 assessed as reduction in trehalose dimycolates level at 6.2 uM incubated for 16 hrs by TLC analysis. The class given is functional, organism-based.
Data set [10] has as its system Mycolicibacterium smegmatis. As to the kind of experiment: Antimycobacterial activity against Mycobacterium smegmatis MC2 155 assessed as reduction in cell wall bound mycolic acid methyl esters at 6.2 uM incubated for 16 hrs by TLC analysis. The class given is functional, organism-based.
In data set [11] the test system is Mycolicibacterium smegmatis. As to the kind of experiment: Antimycobacterial activity against Mycobacterium smegmatis MC2 155 assessed as reduction in phosphatidylethanolamine synthesis at 6.2 uM incubated for 16 hrs by TLC analysis. The class given is functional, organism-based.
The test system of data set [12] is Mycolicibacterium smegmatis. As to the kind of experiment: Disruption of trans-membrane electrical charge gradient of proton motive force in Mycobacterium smegmatis by DiSC3(5)-probe based fluorescence assay. The class given is functional, organism-based.
In another data set the test system is MRC5. The data set is described as §1. The class given is toxicity. Conditions: mrc5, 72 h.
Data set [13] relates to Mycobacterium tuberculosis. As to the kind of experiment: Antimycobacterial activity against 14C acetate-labeled Mycobacterium tuberculosis H37Ra assessed as reduction in trehalose dimycolates level at 3.7 uM incubated for 24 hrs by autoradiography based TLC analysis. The class given is functional, organism-based.
Data set [14] has as its system Mycobacterium tuberculosis. As to the kind of experiment: Antimycobacterial activity against 14C acetate-labeled Mycobacterium tuberculosis H37Ra assessed as reduction in trehalose monomycolates level at 3.7 uM incubated for 24 hrs by autoradiography based TLC analysis. The class given is functional, organism-based.
Data set [15] deals with Mycobacterium tuberculosis. As to the kind of experiment: Antimycobacterial activity against 14C acetate-labeled Mycobacterium tuberculosis H37Ra assessed as inhibition of bacterial growth at 42 uM incubated for 24 hrs by autoradiography based TLC analysis relative to control. The class given is functional.
Data set [16] deals with Mycobacterium tuberculosis. As to the kind of experiment: Antimycobacterial activity against 14C acetate-labeled Mycobacterium tuberculosis H37Ra assessed as inhibition of bacterial growth at 84 uM incubated for 24 hrs by autoradiography based TLC analysis relative to control. The class given is functional. The following applies: AT84.
Data set [17] has as its system Mycobacterium tuberculosis. As to the kind of experiment: Antimycobacterial activity against 14C acetate-labeled Mycobacterium tuberculosis H37Ra assessed as reduction in trehalose dimycolates level at 42 to 84 uM incubated for 24 hrs by autoradiography based TLC analysis. The following applies: dose 42-84 µM. The class given is functional, organism-based.
In data set [18] the test system is Mycobacterium tuberculosis. As to the kind of experiment: Antimycobacterial activity against 14C acetate-labeled Mycobacterium tuberculosis H37Ra assessed as reduction in trehalose monomycolates level at 42 to 84 uM incubated for 24 hrs by autoradiography based TLC analysis. The class given is functional, organism-based. Conditions: dose 42-84 µM.
Data set [19] deals with Mycobacterium tuberculosis. As to the kind of experiment: Antimycobacterial activity against 14C acetate-labeled Mycobacterium tuberculosis H37Ra assessed as reduction in cell wall bound mycolic acid level at 42 to 84 uM incubated for 24 hrs by autoradiography based TLC analysis. The class given is functional, organism-based. The following applies: dose 42-84 µM.
Data set [20] has as its system Mycolicibacterium smegmatis. As to the kind of experiment: Antimycobacterial activity against Mycobacterium smegmatis MC2 155 assessed as inhibition of bacterial growth at 16.8 uM incubated for 16 hrs relative to control. The class given is functional.
Data set [21] has as its system Mycolicibacterium smegmatis. As to the kind of experiment: Antimycobacterial activity against Mycobacterium smegmatis MC2 155 assessed as reduction in trehalose monomycolates level at 16.8 uM incubated for 16 hrs by TLC analysis. The class given is functional, organism-based.
For data set [22], the system named is Mycolicibacterium smegmatis. As to the kind of experiment: Antimycobacterial activity against Mycobacterium smegmatis MC2 155 assessed as reduction in cell wall bound mycolic acid methyl esters at 16.8 uM incubated for 16 hrs by TLC analysis. The class given is functional, organism-based.
The test system of data set [23] is Mycolicibacterium smegmatis. As to the kind of experiment: Antimycobacterial activity against Mycobacterium smegmatis MC2 155 assessed as reduction in trehalose dimycolates level at 16.8 uM incubated for 16 hrs by TLC analysis. The class given is functional, organism-based.
Data set [24] concerns Mycolicibacterium smegmatis. As to the kind of experiment: Antimycobacterial activity against Mycobacterium smegmatis MC2 155 assessed as reduction in phosphatidylethanolamine synthesis at 16.8 uM incubated for 16 hrs by TLC analysis. The class given is functional, organism-based.
Data set [25] deals with Mycolicibacterium smegmatis. As to the kind of experiment: Disruption of trans-membrane electrical charge gradient of proton motive force in Mycobacterium smegmatis up to 280 uM by DiSC3(5)-probe based fluorescence assay. The class given is functional, organism-based.
In data set [26] the test system is Escherichia coli. As to the kind of experiment: Antibacterial activity against Escherichia coli BL21(DE3) assessed as inhibition of bacterial growth incubated for 4 hrs. The class given is functional, organism-based. Conditions: dose 35-140 µM.
Data set [27] relates to Escherichia coli. As to the kind of experiment: Antibacterial activity against Escherichia coli BL21(DE3) assessed as reduction in phosphatidylethanolamine incubated for 4 hrs by TLC analysis. The class given is functional, organism-based.
Data set [28] concerns the target T1, Enoyl-[acyl-carrier-protein] reductase [NADH] (Mycobacterium tuberculosis) (UniProt P9WGR1).
T1 sequence (whole entry): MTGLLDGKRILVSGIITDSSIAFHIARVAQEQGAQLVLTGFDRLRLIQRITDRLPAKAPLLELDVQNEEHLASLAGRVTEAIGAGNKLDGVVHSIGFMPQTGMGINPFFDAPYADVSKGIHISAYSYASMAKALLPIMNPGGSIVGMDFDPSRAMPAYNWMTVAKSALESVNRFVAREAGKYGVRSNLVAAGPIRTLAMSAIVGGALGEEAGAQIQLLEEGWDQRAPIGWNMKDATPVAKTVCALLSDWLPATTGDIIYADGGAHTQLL
As to the kind of experiment: Inhibition of Mycobacterium tuberculosis InhA at 5 uM using trans-2-dodecenoyl-Coenzyme A as substrate in presence of NADH relative to control.

The target in data set [29] is T1, Enoyl-[acyl-carrier-protein] reductase [NADH] (Mycobacterium tuberculosis). As to the kind of experiment: Inhibition of Mycobacterium tuberculosis InhA at 50 uM using trans-2-dodecenoyl-coenzyme A as substrate in presence of NADH.

Values after ≈ are worked out from the molar mass of the structure shown. Values joined by “and” are separate entries in the source; they are usually repeats but may differ in a detail not shown here. Equal entries are not always repeated. Active and inactive are the calls of the source.

The MIC is the smallest concentration in the dilution series that meets the test's criterion for growth inhibition. Turning to `c1ccc(CCN2CCC(C3c4ccccc4-c4ccccc43)C2)cc1` (stereo unspecified), the MIC in data set [1] was 14.7 µM and 5 µg/mL. Further, the CC50 at 72 h in data set [2] was 18.9 µM.
Turning to `c1ccc(CN2CCC(C3c4ccccc4-c4ccccc43)C2)cc1` (stereo unspecified), the MIC in data set [1] is 5 µg/mL and 15.4 µM.
Consider `O=C1C(C2c3ccccc3-c3ccccc32)CCN1CCc1ccccc1` (stereo unspecified), for which the MIC in data set [1] was 1 µg/mL and 2.8 µM.
The inhibition is the relative decrease from the control value, in per cent. For the molecule `N#CC(C#N)=NNc1cccc(Cl)c1` [CARBONYL CYANIDE M-CHLOROPHENYLHYDRAZONE], the inhibition at 2 µM in data set [3] was 0.2%. The inhibition at 5 µM in [4] amounted to 9%. Also, the inhibition at 10 µM in [5] was found to be 66%. The result in [6] was Active.
As to `CCCCCCCCCN1CCC(C2c3ccccc3-c3ccccc32)C1` (stereo unspecified), in data set [1], the MIC was 1 µg/mL and 2.8 µM.
Regarding `O=C1C(C2c3ccccc3-c3ccccc32)CCN1Cc1ccccc1` (stereo unspecified), in data set [1], the MIC was > 74 µM and > 25 µg/mL.
`O=C(Nc1ccc(F)c(F)c1F)NC12CC3CC(CC(C3)C1)C2`: the inhibition at 6.2 µM in data set [7] was 60%. For the same molecule, the result in data set [8] and in [12] was inactive. In addition, the outcome in data set [9], in data set [10] and in data set [11] was Active.
Turning to `O=C1C(C2c3ccccc3-c3ccccc32)CCN1c1ccc(F)cc1` (stereo unspecified), in data set [1], the MIC was 14.6 µM and 5 µg/mL.
Take `Clc1cc(Cl)cc(N2CCC(C3c4ccccc4-c4ccccc43)C2)c1` (stereo unspecified): the MIC in [1] was 66 µM and 25 µg/mL. Also, the Activity entry in the data set with MRC5 is reported as “Non-Toxic”.
Regarding `NNC(=O)c1ccncc1` [ISONIAZID], the MIC in data set [1] turned out to be 0.025 µg/mL (≈ 0.182 µM). In addition, the outcome in [13] and in data set [14] was Active.
In the case of `O=C(c1ccc2[nH]ccc2c1)N1CCN(C2c3ccccc3-c3ccccc32)CC1`, the MIC in data set [1] was > 16 µg/mL and > 40.7 µM.
For the molecule `CCCCCCCCC(=O)N1CCC(C2c3ccccc3-c3ccccc32)C1=O` (stereo unspecified), the MIC in data set [1] was 4 µg/mL and 10.3 µM.
Take `CCCCCCCCCN1CCC(C2c3ccccc3-c3ccccc32)C1=O` (stereo unspecified): the minimum inhibitory concentration (MIC) in [1] is 5 µg/mL and 13.3 µM. The Activity entry in the data set with MRC5 is reported as “Non-Toxic”.
As to `Oc1cc(Cl)ccc1Oc1ccc(Cl)cc1Cl` [TRICLOSAN], in data set [1], the MIC is 34.5 µM and 10 µg/mL.
Turning to `Clc1ccc(CN2CCC(C3c4ccccc4-c4ccccc43)C2)cc1` (stereo unspecified), the MIC in data set [1] was 1.4 µM and 0.5 µg/mL. In addition, the CC50 at 72 h in [2] is 35 µM. Besides, the inhibition at 42 µM in [15] turned out to be 43%. Besides, the inhibition at 84 µM in data set [16] is 48%. Also, the result (in data set [17]; in data set [19]; in data set [22]; in data set [23]; in data set [24]; with Escherichia coli [27]) was Active. The result in data set [18], in [21] and in [25] was inactive. The inhibition at 16.8 µM in data set [20] came out at 57%. In addition, the inhibition result with Escherichia coli [26] is “Dose-Dependent Effect”.
As for `O=C1C(C2c3ccccc3-c3ccccc32)CCN1Cc1ccc(Cl)cc1` (stereo unspecified), the MIC in [1] is 69 µM and 25 µg/mL. For the same molecule, in the data set with MRC5, the Activity entry is recorded as “Non-Toxic”.
Take `O=C(c1ccccc1)N1CCC(C2c3ccccc3-c3ccccc32)C1` (stereo unspecified): the inhibition in [28] amounted to 50%. The MIC in data set [1] was > 16 µg/mL.
In the case of `O=C1C(C2c3ccccc3-c3ccccc32)CCN1c1cc(Cl)cc(Cl)c1` (stereo unspecified), in data set [1] (time 21.0 day), the outcome was inactive. For the same molecule, the inhibition result in data set [29] is “inactive”.
In the case of `O=C(c1ccccc1)N1CCC(C2c3ccccc3-c3ccccc32)C1=O` (stereo unspecified), the minimum inhibitory concentration (MIC) in data set [1] was > 45 µM and > 16 µg/mL.
`CCCCCCCCC(=O)N1CCC(C2c3ccccc3-c3ccccc32)C1` (stereo unspecified): in data set [1], the MIC was 21.3 µM and 8 µg/mL.
Take `Fc1ccc(N2CCC(C3c4ccccc4-c4ccccc43)C2)cc1` (stereo unspecified): the MIC in data set [1] is 15.2 µM and 5 µg/mL.

Values taken from ChEMBL document CHEMBL5257033, “Pyrrolidinone and pyrrolidine derivatives: Evaluation as inhibitors of InhA and Mycobacterium tuberculosis” (Eur J Med Chem, 2016).
